pKi: −log10 of the molar value.
Experiments:
D(4) dopamine receptor = molecular target: T1, D(4) dopamine receptor (Homo sapiens, UniProt P21917); assay: biochemical
T1 sequence (P21917 whole entry): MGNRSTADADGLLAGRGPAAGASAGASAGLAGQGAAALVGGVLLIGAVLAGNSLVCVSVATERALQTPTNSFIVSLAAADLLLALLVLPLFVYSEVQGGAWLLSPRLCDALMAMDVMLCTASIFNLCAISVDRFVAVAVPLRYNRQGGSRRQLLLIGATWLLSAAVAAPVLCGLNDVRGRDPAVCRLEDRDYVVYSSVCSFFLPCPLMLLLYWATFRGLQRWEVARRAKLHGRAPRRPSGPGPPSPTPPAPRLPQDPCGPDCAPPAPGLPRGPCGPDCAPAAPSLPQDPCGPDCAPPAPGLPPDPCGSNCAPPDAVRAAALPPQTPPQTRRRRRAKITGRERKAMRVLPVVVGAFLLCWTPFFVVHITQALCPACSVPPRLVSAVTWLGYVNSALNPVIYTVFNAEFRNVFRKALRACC
Description: Binding affinity to recombinant human dopamine receptor D4 expressed in CHO cells by displacement of [3H]spiperone

D(3) dopamine receptor = D(3) dopamine receptor (Homo sapiens, UniProt P35462); assay: biochemical
D(3) dopamine receptor, sequence (P35462 whole entry): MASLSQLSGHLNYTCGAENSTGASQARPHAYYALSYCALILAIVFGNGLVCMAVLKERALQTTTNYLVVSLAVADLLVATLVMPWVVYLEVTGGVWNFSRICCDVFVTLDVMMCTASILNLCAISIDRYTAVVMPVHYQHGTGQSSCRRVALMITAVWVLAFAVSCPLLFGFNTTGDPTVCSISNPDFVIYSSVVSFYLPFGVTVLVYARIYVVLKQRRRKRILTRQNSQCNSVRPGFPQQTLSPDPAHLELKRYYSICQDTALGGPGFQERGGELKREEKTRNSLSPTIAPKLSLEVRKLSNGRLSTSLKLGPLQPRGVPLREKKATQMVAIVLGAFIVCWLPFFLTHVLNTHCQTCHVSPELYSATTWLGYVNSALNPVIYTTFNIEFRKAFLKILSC
Description: Binding affinity against cloned human dopamine receptor D3 expressed in Chinese hamster ovary (CHO) K-1 cells by displacement of [3H]spiperone.

SMILES | pKi (D(4) dopamine receptor) | pKi (D(3) dopamine receptor)
Clc1ccc(OCCNCCCOc2ccc(Br)cc2)cc1 | 7.42 | –
Cc1ccc(OCCNCCCOc2ccccc2)cc1C | 9.46 | 7.14
Cc1ccc(OCCNCCCOc2cccc(C)c2)cc1 | 8.92 | 6.72
Clc1ccccc1OCCNCCCOc1ccccc1 | 8.36 | 7.77
COc1ccc(OCCNCCCOc2ccccc2)cc1 | 8.27 | 6.43
O=C(O)c1ccc(OCCNCCCOc2ccccc2)cc1 | < 6.00 | –
Cc1ccc(OCCNCCCOc2ccc(F)cc2)cc1 | 9.02 | 6.63
Cc1ccccc1OCCNCCCOc1ccccc1 | 7.13 | –
O=[N+]([O-])c1ccc(OCCNCCCOc2ccccc2)cc1 | 8.36 | 6.46
c1ccc(OCCCNCCOc2ccccc2)cc1 | 8.70 | 6.87
Cc1ccc(OCCNCCCOc2ccccc2C)cc1 | 8.96 | 6.42
Fc1ccc(OCCCNCCOc2ccc(Cl)cc2)cc1 | 9.08 | 7.01
Cc1ccc(OCCNCCCSc2ccccc2)cc1 | 9.10 | 7.25
c1ccc(CCCNCCCOc2ccccc2)cc1 | 8.48 | 7.77
Clc1ccc(SCCNCCCOc2ccccc2)cc1 | 7.48 | –
Cc1ccc(OCCNCCCOc2ccccc2)cc1Cl | 9.28 | 8.41
Oc1ccc(OCCNCCCOc2ccccc2)cc1 | 8.51 | 6.63

Further compounds by rising pKi (D(4) dopamine receptor), results first:

pKi (D(4) dopamine receptor) | pKi (D(3) dopamine receptor) | SMILES
7.52 | – | Cc1ccc(SCCNCCCOc2ccccc2)cc1
7.57 | 5.77 | Cc1ccc(OCCNCCCOc2ccc(Br)cc2)cc1
7.96 | 6.63 | Cc1ccc(OCCCNCCOc2ccc(C)cc2)cc1
8.25 | 6.75 | Cc1ccc(OCCCNCCOc2ccc(Cl)cc2)cc1
8.33 | – | Cc1ccc(CCCNCCCOc2ccccc2)cc1
8.57 | – | Cc1ccc(OCCCNCCOc2ccccc2)cc1
8.85 | 7.02 | Clc1ccc(OCCNCCCSc2ccccc2)cc1
9.28 | 6.77 | Cc1ccc(OCCNCCCOc2ccccc2)cc1
9.34 | – | Cc1cccc(OCCNCCCOc2ccccc2)c1
9.51 | – | Clc1cccc(OCCNCCCOc2ccccc2)c1

— ChEMBL document CHEMBL1130257, “(Aryloxy)alkylamines as selective human dopamine D4 receptor antagonists: potential antipsychotic agents” (J Med Chem, 1997)
